Measurements as given in US20190292514A1, “FERMENTATION MEDIUM COMPRISING CHELATING AGENT” (priority 2016, published 2019).

Tests used:
[1] = Trace element solutions with different chelating agents: pH, color and precipitation; format: physicochemical; conditions: for color development and clarity of trace element solution after final mixing: after addition of Na2MoO4 and final mixing (EDTA: after pH adjustment to pH 4); for measured pH value of trace element solution: after addition of all salts and final mixing, chelating agent equimolar to divalent cations; for precipitation of trace element solution after storage for 24 h and pH adjustment to pH 6: storage 24 h at room temperature or 4° C., pH readjusted to pH 6; for complexation and precipitation compared with citrate (summary): trace element solutions
Text: A trace element solution was mixed together with one of the following chelating agents: citric acid, […], DTPA, EGTA, or […]. Therefore, at first each chelating agent was weight equimolar to the utilized divalent cations. […] After each compound supplementation the solutions were characterized regarding pH value, color and precipitation. After the addition of the last compound, i.e., Na2MoO4, the solutions were aliquoted. […] Afterwards samples were again characterized by pH value, color and precipitation behavior.

[2] = Fermentation medium with trace element solutions and different chelating agents: precipitation; format: physicochemical; conditions: for precipitation in fermentation medium, pH adjustment to 6: samples with pH adjustment to 6; for precipitation in fermentation medium, pH adjustment to 6 / precipitation in fermentation medium, pH adjustment to 7.7: 24 h storage; for precipitation in fermentation medium, pH adjustment to 7.7: samples with pH adjustment to 7.7
Protocol: A fermentation medium was mixed with different chelating agents. Therefore, deionized water, Ca(NO3)2*4 H2O, MgSO4*7H2O, NH4H2PO4, and KH2PO4 were mixed together in this certain order with the respective chelating agent. Each chelating agent was weight equimolar to the utilized divalent cations. Afterwards the pH is measured. All three media were aliquoted six times each. Three aliquots of each medium were adjusted to pH 6.7, the other three samples to pH 7.7. Samples were mixed with the trace element solutions as described in Example 1 and stored at 35° C., room temperature and 4° C. for 24 h. Then color formation and precipitation were characterized.

[3] = test system: Bacillus licheniformis producing a subtilisin protease; assay: Microtiter plate cultivation, biomass growth by scattered light; format: cell-based; conditions: μL scale; for development of biomass (scatter plot) / maximal biomass values lower compared to MGDA or NTA: 30° C., 48 h; for development of biomass (scatter plot): chelating agent equimolar; for higher scatter (growth and maximal scatter values) compared to citric acid, EGTA, HEEDTA, DTPA and EDTA: FIG. 1
Protocol: (§1) Glucose was supplied in total in an amount of 14 g/I for a cultivation time of 48 h. […] The different fermentation media were aliquoted to a BioLector Flowerplate/microtiter plate […] labs) 700 μL each and cultivated at 30° C., shaker frequency 1200 rpm for 48 h after inoculating with Bacillus licheniformis producing a subtilisin protease. During the cultivation oxygen partial pressure, pH and scattered light for biomass growth are measured online by optical sensors every 15 min.

[4] = test system: Bacillus licheniformis producing a subtilisin protease; assay: Protease formation in microtiter plate cultivation, casein based activity assay; format: cell-based; conditions: normalized activity units; for enzyme (protease) activity compared with citrate: trace element solution pH 6.7 and pH 7.7, μL scale; for enzyme (protease) activity lower than with citrate: comparable for pH 6.7 and pH 7.7, μL scale
Protocol: as §1, with “min. For characterization of protease formation enzyme activity was measured by casein based activity assay.” for “min.”

[5] = test system: Bacillus licheniformis producing a subtilisin protease; assay: Fed-batch cultivation process in 20 L scale, protease formation; format: cell-based; conditions: 20 L scale fed-batch; for STY (productivity), space time yield normalized to % / Titer (productivity), normalized to %: 37° C., pH 7.7, 2 mL/L chelating agent, citric acid = 100%
Protocol: The fermentation processes were conducted in a baffled stirred tank reactor (STR) with pH, pO2 and temperature probes in a medium with glucose as main carbon source and complex plant protein as N-source. The concentration of O2 and CO2 were monitored by gas analyses. For the cultivations, the fedbatch mode was chosen with a start working volume of 10 L. As bioreactors, 21 L steal vessels were used with 3 rushton turbines with 6 blades.
Medium preparation and sterilization for seed and main culture medium took place in the bioreactor, respectively. The medium contained complex plant protein, NH4H2PO4, KH2PO4, Mn(II)SO4*H2O, Fe(II)SO4*7H2O, MgSO4*7H2O, Ca(NO3)2*4 H2O, trace element solution as described above, antifoam and 2 mL/L MGDA or citric acid. pH was adjusted to pH 6.5. The medium was sterilized in the bioreactor under stirred conditions (600 rpm) for 60 min at 121° C. For inoculation with Bacillus licheniformis producing a subtilisin protease 2% of the starting working volume was used from a seed culture fermenter with the same medium. Seed culture cultivation was conducted at 37° C. and harvested during exponential growth phase after 16 h. The main cultivation was conducted at 37° C., with pO2 dependent stirred cascade from 350-1400 rpm, pH 7.7 and an aeration rate of 1.5 wvvm. The glucose feed was started 8 h after inocu lation.

Row | SMILES | measured pH value of trace element solution [1] | complexation and precipitation compared with citrate (summary) [1] | precipitation in fermentation medium, pH adjustment to 6 [2] | precipitation in fermentation medium, pH adjustment to 7.7 [2] | precipitation on supplementation of CuSO4 ([1]; during preparation of the trace element solution) | precipitation of trace element solution after storage for 3 h at 4° C. ([1]; 3 h at 4° C.) | color development and clarity of trace element solution after final mixing [1] | precipitation of trace element solution after storage for 24 h and pH adjustment to pH 6 [1] | development of biomass (scatter plot) [3] | higher scatter (growth and maximal scatter values) compared to citric acid, EGTA, HEEDTA, DTPA and EDTA [3] | enzyme (protease) activity compared with citrate [4] | product titer and space time yields versus citric acid [5] | STY (productivity), space time yield normalized to % [5] | Titer (productivity), normalized to % [5] | enzyme (protease) activity lower than with citrate [4] | precipitation in fermentation medium ([2]; all samples, pH 6.7 and 7.7, 35° C., room temperature and 4° C. for 24 h) | maximal biomass values lower compared to MGDA or NTA [3]
1 | CC(C(=O)O)N(CC(=O)O)CC(=O)O (stereo not shown) [MGDA, methyl glycine diacetic acid] | 2.8 | better results than citrate | low precipitations | no precipitations occurred |  |  | green blue and crystal clear solution | Neither after storage for 24 h nor after pH adjustment to pH of 6 any precipitates occurred | fastest growth and highest values | 20% | on a comparable level as the prior art standard citrate | higher product titer and space time yields | 110% | 104% |  |  | 
2 | O=C(O)CC(O)(CC(=O)O)C(=O)O [citric acid] | 4.6 |  |  |  |  |  | emerald green and was a crystal clear solution | precipitates formed a red pellet | biomass growth started delayed |  |  |  | 100% | 100% |  | strong precipitations in all samples | about 20%
3 | O=C(O)CC[C@@H](C(=O)O)N(CC(=O)O)CC(=O)O [GLDA, glutamic acid N,N-diacetic acid] | 3.7 |  |  |  |  | precipitates were detected | light blue and was a crystal clear solution | precipitates were formed |  |  |  |  |  |  |  |  | 
4 | O=C(O)CN(CCOCCOCCN(CC(=O)O)CC(=O)O)CC(=O)O [EGTA, ethylene glycol tetraacetic acid] | 2.7 |  |  |  |  |  | dark blue and was a clear solution | the solution turned darker and brownish | biomass growth started delayed |  |  |  |  |  | about 25% |  | about 20%

Continued, in another order:

Row | measured pH value of trace element solution [1] | complexation and precipitation compared with citrate (summary) [1] | precipitation in fermentation medium, pH adjustment to 6 [2] | precipitation in fermentation medium, pH adjustment to 7.7 [2] | precipitation on supplementation of CuSO4 ([1]; during preparation of the trace element solution) | precipitation of trace element solution after storage for 3 h at 4° C. ([1]; 3 h at 4° C.) | SMILES | color development and clarity of trace element solution after final mixing [1] | precipitation of trace element solution after storage for 24 h and pH adjustment to pH 6 [1] | development of biomass (scatter plot) [3] | higher scatter (growth and maximal scatter values) compared to citric acid, EGTA, HEEDTA, DTPA and EDTA [3] | enzyme (protease) activity compared with citrate [4] | product titer and space time yields versus citric acid [5] | STY (productivity), space time yield normalized to % [5] | Titer (productivity), normalized to % [5] | enzyme (protease) activity lower than with citrate [4] | precipitation in fermentation medium ([2]; all samples, pH 6.7 and 7.7, 35° C., room temperature and 4° C. for 24 h) | maximal biomass values lower compared to MGDA or NTA [3]
5 | 3 |  |  |  | strong white precipitates occurred |  | O=C(O)CN(CCN(CC(=O)O)CC(=O)O)CC(=O)O [EDTA, ethylene diamine tetraacetic acid] | blue and clear solution | no further precipitation was noticed | no growth was detected |  |  |  |  |  |  |  | 
6 | 2.5 | better results than citrate | low precipitations | no precipitations occurred |  |  | O=C(O)CN(CC(=O)O)CC(=O)O [NTA, nitrilotriacetic acid] | emerald green and was a crystal clear solution | Neither after storage time of 24 h nor after pH adjustment to pH of 6 any precipitates occurred | fastest growth and highest values | 20% | on a comparable level as the prior art standard citrate |  |  |  |  |  | 
7 | 2.6 | better results than citrate |  |  |  |  | O=C(O)CN(CCO)CCN(CC(=O)O)CC(=O)O [HEEDTA, hydroxyethylethylene diamine triacetic acid] | dark blue and was a clear solution | no precipitation was detected | strong delayed growth and lower biomass development |  |  |  |  |  | 60% |  | 
8 | 2.6 | better results than citrate |  |  |  |  | O=C(O)CN(CCN(CC(=O)O)CC(=O)O)CCN(CC(=O)O)CC(=O)O [DTPA, diethylene triamine pentaacetic acid] | dark green and was a clear solution | no precipitation was detected | no growth was detected |  |  |  |  |  |  |  | 
